Patent US7618958B2, “Stereospecific anxiolytic and anticonvulsant agents with reduced muscle-relaxant, sedative-hypnotic and ataxic effects” (WISYS Technology Foundation, Inc., priority 2004, dated 2009)

How the values were obtained:
Male Sprague-Dawley rats [1] = assay: Open-field locomotor activity in rats; conditions: for sedative or hypnotic effects (locomotor activity): compared with diazepam or triazolam; for Antianxiety/sedation: ratio of lowest effective anxiolytic dose (situational anxiety) and lowest effective dose producing side effects in locomotor activity, PO
Method: Open-Field Locomotor Activity in Rats
Male Sprague-Dawley rats, weighing 250-290 grams at the beginning of the experiment were purchased from Charles River Laboratories (Wilmington, Mass.). The animals were housed in groups of four in a colony room maintained at constant temperature (21±2° C.) and humidity (50±10%). The room was illuminated 12 hours per day (lights on at 0600 h). The rats had ad libitum access to food and water. The testing apparatus consisted of Plexiglas chambers (42×42×30 cm) equipped with Digiscan activity monitors (Omnitech Electronics, Columbus, Ohio) that detect interruptions of 16 photobeams spaced 2.5 cm apart and 2.5 cm above the floor. Horizontal activity was monitored for 60 minutes.
(§1) Drug Administration: All drugs were administered PO 20-60 minutes before behavioral testing.
(§2) Data Analysis: Results were expressed as the mean±1 SEM. All data were subjected to analysis of variance (ANOVA) followed by individual mean comparisons using Fisher's Least Significant Difference Test (Kirk, 1968) where appropriate. The significance level was set at p<0.05.
Rats were placed in an open field and the total distance covered by the rat was measured. The test duration was 60 minutes. Compounds producing sedative effects decrease the distance covered.

Male Sprague-Dawley rats [2] = assay: Rotorod performance in rats; conditions: for ataxia (rotorod): compared with diazepam or triazolam; for Antianxiety/ataxia: ratio of lowest effective anxiolytic dose (situational anxiety) and lowest effective dose producing side effects in rotorod, PO
Method: Rotorod Performance in Rats
Male Sprague-Dawley rats, weighing 180-200 grams at the beginning of the experiment were purchased from Charles River Laboratories (Wilmington, Mass.). The animals were housed in groups of four in a colony room maintained at constant temperature (21±2° C.) and humidity (50±10%). The room was illuminated 12 hours per day (lights on at 0600 h). The rats had ad libitum access to food and water. The degree of muscle coordination or balance (i.e., ataxia) was determined using a standard accelerating rotorod treadmill (Ugo Basile, Comerio-Varese, Italy or Columbus Instruments, Columbus, Ohio) that was 6 cm in diameter, 24 cm above the base, and run from an initial speed of 2 rpm to a maximum speed of 20 rpm. The time each animal remained on the rotating rod was automatically recorded, up to a maximum of 5 minutes.
as §1, §2
The time on the rod for each rat was recorded. Compounds producing ataxia (motor incoordination) decrease the time spent on the rod compared with vehicle-treated animals.

Male CF1 mice = assay: Protection from pentylenetetrazole-induced seizures; format: in vivo, mouse; conditions: for PTZ Seizures, effective dose: PO 60 min before pentylenetetrazole 125 mg/kg s.c.; for anticonvulsant effects against PTZ-induced seizures: PTZ 125 mg/kg
Method: Protection from Pentylenetetrazole-Induced Seizures
Male CF1 mice weighing 20-22 g at the time of the experiment were purchased from Charles River Laboratories (Wilmington, Mass.). Pentylenetetrazole (Sigma Chemical Co.) was administered at 125 mg/kg s.c. The number of animals surviving was recorded at 30 minutes and 60 minutes after administration of pentylenetetrazole.
Drug Administration: All drugs were administered PO 60 minutes before administration of pentyenetetrazole.
Data Analysis: The data are presented as the percent of animals protected from death. The data were analyzed by Chi Square statistics. The significance level was set at p<0.05.
Mice treated with certain compounds of the present invention were subjected to pentylenetetrazole (PTZ) at 125 mg/kg to induce seizures. The percent of animals protected from death within one hour of PTZ was measured.

Male Sprague-Dawley rats [3] = assay: Discriminative stimulus effects of chlordiazepoxide in rats (drug discrimination); conditions: for CDP-like effects (drug discrimination): compared with diazepam or triazolam; for Antianxiety/abuse liability: ratio of lowest effective anxiolytic dose (situational anxiety) and lowest effective dose producing chlordiazepoxide-like effects in drug discrimination
GABAA/α5 receptors = GABAA/α5 receptors (Homo sapiens, UniProt P18507+P31644); conditions: cited from earlier work
Sequence of GABAA/α5 receptors (P31644 32-462): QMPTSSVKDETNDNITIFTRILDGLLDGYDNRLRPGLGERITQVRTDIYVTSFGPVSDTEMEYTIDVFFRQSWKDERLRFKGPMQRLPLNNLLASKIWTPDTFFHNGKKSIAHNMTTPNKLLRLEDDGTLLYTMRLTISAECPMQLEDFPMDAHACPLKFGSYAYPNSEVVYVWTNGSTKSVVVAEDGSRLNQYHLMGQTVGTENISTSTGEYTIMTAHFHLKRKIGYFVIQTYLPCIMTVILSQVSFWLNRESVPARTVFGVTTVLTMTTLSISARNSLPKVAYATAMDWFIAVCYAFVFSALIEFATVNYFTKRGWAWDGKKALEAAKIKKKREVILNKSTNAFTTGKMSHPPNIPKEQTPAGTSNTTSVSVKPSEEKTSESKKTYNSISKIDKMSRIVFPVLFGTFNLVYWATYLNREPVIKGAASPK
Sequence of GABAA/α5 receptors (P28472 26-473 partner): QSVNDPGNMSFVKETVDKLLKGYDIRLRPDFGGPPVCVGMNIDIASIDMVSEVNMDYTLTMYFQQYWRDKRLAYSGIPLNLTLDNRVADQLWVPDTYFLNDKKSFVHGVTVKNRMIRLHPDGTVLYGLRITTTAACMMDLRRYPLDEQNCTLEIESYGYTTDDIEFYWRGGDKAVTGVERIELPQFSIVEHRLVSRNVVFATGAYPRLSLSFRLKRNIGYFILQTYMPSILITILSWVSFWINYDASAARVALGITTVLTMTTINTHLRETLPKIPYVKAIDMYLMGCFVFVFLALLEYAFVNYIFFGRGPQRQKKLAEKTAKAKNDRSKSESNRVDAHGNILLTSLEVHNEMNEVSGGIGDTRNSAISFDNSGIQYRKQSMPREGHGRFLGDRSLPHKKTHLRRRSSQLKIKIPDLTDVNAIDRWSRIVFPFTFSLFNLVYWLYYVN
Sequence of GABAA/α5 receptors (P18507 40-475): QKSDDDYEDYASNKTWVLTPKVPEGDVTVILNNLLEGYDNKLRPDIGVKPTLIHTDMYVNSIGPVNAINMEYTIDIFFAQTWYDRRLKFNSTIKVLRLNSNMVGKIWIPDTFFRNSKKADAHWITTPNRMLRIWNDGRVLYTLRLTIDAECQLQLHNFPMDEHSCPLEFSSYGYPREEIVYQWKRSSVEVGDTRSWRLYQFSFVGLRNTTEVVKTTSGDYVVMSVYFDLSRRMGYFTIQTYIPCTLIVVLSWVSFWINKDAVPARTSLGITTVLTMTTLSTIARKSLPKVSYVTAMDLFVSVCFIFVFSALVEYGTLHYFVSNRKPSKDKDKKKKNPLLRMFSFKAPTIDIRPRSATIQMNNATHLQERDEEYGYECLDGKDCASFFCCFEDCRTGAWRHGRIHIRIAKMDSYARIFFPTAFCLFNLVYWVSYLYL

GABAA/α2 = GABAA/α2 (Homo sapiens, UniProt P18507+P47869); conditions: cited from earlier work
Sequence of GABAA/α2 (P47869 29-451): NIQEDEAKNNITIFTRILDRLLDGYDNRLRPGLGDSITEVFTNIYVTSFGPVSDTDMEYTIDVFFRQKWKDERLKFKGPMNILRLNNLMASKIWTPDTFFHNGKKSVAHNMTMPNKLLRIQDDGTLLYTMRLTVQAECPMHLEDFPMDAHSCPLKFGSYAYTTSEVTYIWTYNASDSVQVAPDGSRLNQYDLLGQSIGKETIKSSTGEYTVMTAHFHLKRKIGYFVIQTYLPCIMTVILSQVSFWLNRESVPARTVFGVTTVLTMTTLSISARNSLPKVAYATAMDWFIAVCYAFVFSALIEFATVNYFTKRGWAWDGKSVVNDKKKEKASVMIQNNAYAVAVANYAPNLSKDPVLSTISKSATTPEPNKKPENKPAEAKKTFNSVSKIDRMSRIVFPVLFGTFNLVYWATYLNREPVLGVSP
Sequence of GABAA/α2 (P28472 26-473 partner): as the sequence (P28472 26-473 partner) above
Sequence of GABAA/α2 (P18507 40-475): as the sequence (P18507 40-475) above

GABAA/α3 = GABAA/α3 (Homo sapiens, UniProt P18507+P34903); conditions: cited from earlier work
Sequence of GABAA/α3 (P34903 29-492): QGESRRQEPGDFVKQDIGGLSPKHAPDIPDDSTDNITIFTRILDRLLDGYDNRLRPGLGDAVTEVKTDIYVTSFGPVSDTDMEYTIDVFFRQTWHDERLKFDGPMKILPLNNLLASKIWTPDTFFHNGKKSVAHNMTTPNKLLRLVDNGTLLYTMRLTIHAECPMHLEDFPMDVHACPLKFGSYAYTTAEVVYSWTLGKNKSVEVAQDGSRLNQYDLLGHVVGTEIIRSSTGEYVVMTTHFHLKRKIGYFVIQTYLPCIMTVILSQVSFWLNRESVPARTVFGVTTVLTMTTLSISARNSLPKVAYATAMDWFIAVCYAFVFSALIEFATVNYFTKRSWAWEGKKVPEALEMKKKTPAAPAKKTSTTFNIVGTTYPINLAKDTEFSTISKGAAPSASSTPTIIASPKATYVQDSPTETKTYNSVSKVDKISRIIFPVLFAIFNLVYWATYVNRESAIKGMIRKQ
Sequence of GABAA/α3 (P28472 26-473 partner): as the sequence (P28472 26-473 partner) above
Sequence of GABAA/α3 (P18507 40-475): as the sequence (P18507 40-475) above

GABAA/α1 receptors = GABAA/α1 receptors (Homo sapiens, UniProt P14867+P18507); conditions: cited from earlier work
Sequence of GABAA/α1 receptors (P14867 28-456): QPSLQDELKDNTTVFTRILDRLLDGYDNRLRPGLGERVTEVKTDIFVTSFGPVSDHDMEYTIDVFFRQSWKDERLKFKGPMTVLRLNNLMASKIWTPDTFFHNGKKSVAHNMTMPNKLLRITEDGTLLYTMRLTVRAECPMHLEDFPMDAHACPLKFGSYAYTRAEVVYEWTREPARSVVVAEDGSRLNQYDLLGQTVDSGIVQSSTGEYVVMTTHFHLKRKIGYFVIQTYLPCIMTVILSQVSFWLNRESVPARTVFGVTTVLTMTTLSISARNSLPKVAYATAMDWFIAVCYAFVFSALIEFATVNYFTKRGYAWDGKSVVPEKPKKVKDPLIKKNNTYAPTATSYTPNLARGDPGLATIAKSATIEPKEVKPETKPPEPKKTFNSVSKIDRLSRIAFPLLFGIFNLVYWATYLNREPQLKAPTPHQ
Sequence of GABAA/α1 receptors (P28472 26-473 partner): as the sequence (P28472 26-473 partner) above
Sequence of GABAA/α1 receptors (P18507 40-475): as the sequence (P18507 40-475) above

Structure (SMILES)	sedative or hypnotic effects (locomotor activity) (Male Sprague-Dawley rats [1])	Antianxiety/sedation (Male Sprague-Dawley rats [1])	ataxia (rotorod) (Male Sprague-Dawley rats [2])	Antianxiety/ataxia (Male Sprague-Dawley rats [2])	PTZ Seizures, effective dose (Male CF1 mice)	anticonvulsant effects against PTZ-induced seizures (Male CF1 mice)	CDP-like effects (drug discrimination) (Male Sprague-Dawley rats [3])	Antianxiety/abuse liability (Male Sprague-Dawley rats [3])	Ki (GABAA/α5 receptors)	Ki (GABAA/α2)	Ki (GABAA/α3)	Ki (GABAA/α1 receptors)
C#Cc1ccc2c(c1)C(c1ccccc1)=NCc1c(C(=O)OCC)ncn1-2 [XHe-ii-053, Ethyl 8-acetylenyl-6-phenyl-4H-benzo[f]imidazo[1,5-a][1,4]diazepine-3-carboxylate]	less effective in producing sedative or hypnotic effects than diazepam or triazolam	>300	less potent in producing ataxia than diazepam or triazolam	>300	≦100 mg/kg	effective against PTZ-induced seizures	less potent in producing CDP-like effects than diazepam or triazolam	>300	–	–	–	–
CCOC(=O)c1ncn2c1CN=C(c1ccccc1)c1cc(Br)ccc1-2 [DM-i-070, Ethyl 8-bromo-6-phenyl-4H-benzo[f]imidazo[1,5-a][1,4]diazepine-3-carboxylate]	–	>100	–	>100	<100 mg/kg	–	–	10	–	–	–	–
Cc1nnc2n1-c1ccc(Cl)cc1C(c1ccccc1Cl)=NC2 [Triazolam, reference compound]	–	300	–	100	<1.0 mg/kg	–	–	30	–	–	–	–
C#Cc1ccc2c(c1)C(c1ccccc1)=NCC(=O)N2C [QH-ii-066, 1-Methyl-7-acetyleno-5-phenyl-1,3-dihydro-benzo [e]-1,4-diazepin-2-one]	less effective in producing sedative or hypnotic effects than diazepam or triazolam	100	less potent in producing ataxia than diazepam or triazolam	>100	<30 mg/kg	anticonvulsant effects against PTZ-induced seizures at doses comparable to those for diazepam and triazolam	less potent in producing CDP-like effects than diazepam or triazolam	30	< 10 nM	< 50 nM	< 50 nM	> 70 nM
